{
  "source": "paper PMC9133015",
  "about": "(Nature Communications, 2022)",
  "assay_type_in_all_cases": "cell-based, human",
  "key": {"[1]": {"test_system": "22Rv1 cells", "assay": "Cell growth assay (5-day course)"}, "[2]": {"test_system": "DU145 cells", "assay": "Cell growth assay (5-day course)"}, "[3]": {"test_system": "PC-3 cells", "assay": "Cell growth assay (5-day course)", "conditions": "for Relative proliferation rate mean / Relative proliferation rate / optical density: PC-3; for Relative proliferation rate / optical density: replicates"}, "[4]": {"test_system": "PC-3 cells", "assay": "Colony formation assay", "conditions": "replicates"}, "[5]": {"test_system": "22Rv1 cells", "assay": "Apoptosis assay (Annexin V-APC/PI flow cytometry)", "conditions": "for Apoptosis (%): replicates"}},
  "note": "Several values for one entry are separate records, joined by “and”; a condition that tells them apart may be missing. Identical values can stand only once.",
  "data": [
    {"smiles": "CCN1CCN(C(=O)c2ccc(Nc3ncc(F)c(-c4ccc5nc(N(C)C)sc5c4)n3)nc2)CC1", "note": "[YK-2-69]", "values": [
      {"measurement": "Relative proliferation rate mean", "setting": "[1]; 22Rv1, 0.5 µM, day 1", "result": 1.179},
      {"measurement": "Relative proliferation rate mean", "setting": "[1]; 22Rv1, 0.5 µM, day 2", "result": 1.871},
      {"measurement": "Relative proliferation rate mean", "setting": "[1]; 22Rv1, 0.5 µM, day 3", "result": 2.62},
      {"measurement": "Relative proliferation rate mean", "setting": "[1]; 22Rv1, 0.5 µM, day 4", "result": 3.018},
      {"measurement": "Relative proliferation rate mean", "setting": "[1]; 22Rv1, 1 µM, day 1", "result": 1.007},
      {"measurement": "Relative proliferation rate mean", "setting": "[1]; 22Rv1, 1 µM, day 2", "result": 1.59},
      {"measurement": "Relative proliferation rate mean", "setting": "[1]; 22Rv1, 1 µM, day 3", "result": 1.919},
      {"measurement": "Relative proliferation rate mean", "setting": "[1]; 22Rv1, 1 µM, day 4", "result": 2.135},
      {"measurement": "Relative proliferation rate mean", "setting": "[1]; 22Rv1, 2 µM, day 1", "result": 0.9977},
      {"measurement": "Relative proliferation rate mean", "setting": "[1]; 22Rv1, 2 µM, day 2", "result": 1.414},
      {"measurement": "Relative proliferation rate mean", "setting": "[1]; 22Rv1, 2 µM, day 3", "result": 1.775},
      {"measurement": "Relative proliferation rate mean", "setting": "[1]; 22Rv1, 2 µM, day 4", "result": 1.902},
      {"measurement": "cell proliferation, 5-day course/colony (in words)", "setting": "[1]; 22Rv1 cells, dose-dependent", "result": "significantly inhibited the cell proliferation"},
      {"measurement": "Relative proliferation rate mean", "setting": "[2]; DU145, 4 μM, day 1", "result": 1.572},
      {"measurement": "Relative proliferation rate mean", "setting": "[2]; DU145, 4 μM, day 2", "result": 2.148},
      {"measurement": "Relative proliferation rate mean", "setting": "[2]; DU145, 4 μM, day 3", "result": 4.361},
      {"measurement": "Relative proliferation rate mean", "setting": "[2]; DU145, 4 μM, day 4", "result": 5.61},
      {"measurement": "Relative proliferation rate mean", "setting": "[2]; DU145, 8 μM, day 1", "result": 1.538},
      {"measurement": "Relative proliferation rate mean", "setting": "[2]; DU145, 8 μM, day 2", "result": 2.008},
      {"measurement": "Relative proliferation rate mean", "setting": "[2]; DU145, 8 μM, day 3", "result": 3.775},
      {"measurement": "Relative proliferation rate mean", "setting": "[2]; DU145, 8 μM, day 4", "result": 4.448},
      {"measurement": "Relative proliferation rate mean", "setting": "[2]; DU145, 12 μM, day 1", "result": 1.322},
      {"measurement": "Relative proliferation rate mean", "setting": "[2]; DU145, 12 μM, day 2", "result": 1.207},
      {"measurement": "Relative proliferation rate mean", "setting": "[2]; DU145, 12 μM, day 3", "result": 1.763},
      {"measurement": "Relative proliferation rate mean", "setting": "[2]; DU145, 12 μM, day 4", "result": 2.506},
      {"measurement": "cell proliferation, 5-day course/colony (in words)", "setting": "[2]; DU145 cells, dose-dependent", "result": "significantly inhibited the cell proliferation"},
      {"measurement": "Relative proliferation rate mean", "setting": "[3]; 1 µM, day 0", "result": 1},
      {"measurement": "Relative proliferation rate", "setting": "[3]; 1 µM, day 0", "result": 1},
      {"measurement": "optical density", "setting": "[3]; 1 µM, day 0", "result": 0.270},
      {"measurement": "Relative proliferation rate mean", "setting": "[3]; 1 µM, day 1", "result": 1.314},
      {"measurement": "Relative proliferation rate", "setting": "[3]; 1 µM, day 1", "result": "1.339 and 1.335 and 1.268"},
      {"measurement": "optical density", "setting": "[3]; 1 µM, day 1", "result": "0.361 and 0.36 and 0.342"},
      {"measurement": "Relative proliferation rate mean", "setting": "[3]; 1 µM, day 2", "result": 1.774},
      {"measurement": "Relative proliferation rate", "setting": "[3]; 1 µM, day 2", "result": "1.713 and 1.81 and 1.799"},
      {"measurement": "optical density", "setting": "[3]; 1 µM, day 2", "result": "0.462 and 0.488 and 0.485"},
      {"measurement": "Relative proliferation rate mean", "setting": "[3]; 1 µM, day 3", "result": 3.173},
      {"measurement": "Relative proliferation rate", "setting": "[3]; 1 µM, day 3", "result": "3.23 and 3.148 and 3.141"},
      {"measurement": "optical density", "setting": "[3]; 1 µM, day 3", "result": "0.871 and 0.849 and 0.847"},
      {"measurement": "Relative proliferation rate mean", "setting": "[3]; 1 µM, day 4", "result": 6.7021},
      {"measurement": "Relative proliferation rate", "setting": "[3]; 1 µM, day 4", "result": "6.623 and 6.6712 and 6.812"},
      {"measurement": "optical density", "setting": "[3]; 1 µM, day 4", "result": "1.786 and 1.799 and 1.837"},
      {"measurement": "Relative proliferation rate mean", "setting": "[3]; 2 µM, day 0", "result": 1},
      {"measurement": "Relative proliferation rate", "setting": "[3]; 2 µM, day 0", "result": 1},
      {"measurement": "optical density", "setting": "[3]; 2 µM, day 0", "result": 0.273},
      {"measurement": "Relative proliferation rate mean", "setting": "[3]; 2 µM, day 1", "result": 1.2692},
      {"measurement": "Relative proliferation rate", "setting": "[3]; 2 µM, day 1", "result": "1.28 and 1.295 and 1.233"},
      {"measurement": "optical density", "setting": "[3]; 2 µM, day 1", "result": "0.35 and 0.354 and 0.337"},
      {"measurement": "Relative proliferation rate mean", "setting": "[3]; 2 µM, day 2", "result": 1.697},
      {"measurement": "Relative proliferation rate", "setting": "[3]; 2 µM, day 2", "result": "1.752 and 1.668 and 1.672"},
      {"measurement": "optical density", "setting": "[3]; 2 µM, day 2", "result": "0.479 and 0.456 and 0.457"},
      {"measurement": "Relative proliferation rate mean", "setting": "[3]; 2 µM, day 3", "result": 2.625},
      {"measurement": "Relative proliferation rate", "setting": "[3]; 2 µM, day 3", "result": "2.612 and 2.575 and 2.688"},
      {"measurement": "optical density", "setting": "[3]; 2 µM, day 3", "result": "0.714 and 0.704 and 0.735"},
      {"measurement": "Relative proliferation rate mean", "setting": "[3]; 2 µM, day 4", "result": 5.619},
      {"measurement": "Relative proliferation rate", "setting": "[3]; 2 µM, day 4", "result": "5.662 and 5.571 and 5.625"},
      {"measurement": "optical density", "setting": "[3]; 2 µM, day 4", "result": "1.548 and 1.523 and 1.538"},
      {"measurement": "Relative proliferation rate mean", "setting": "[3]; 4 µM, day 0", "result": 1},
      {"measurement": "Relative proliferation rate", "setting": "[3]; 4 µM, day 0", "result": 1},
      {"measurement": "optical density", "setting": "[3]; 4 µM, day 0", "result": 0.274},
      {"measurement": "Relative proliferation rate mean", "setting": "[3]; 4 µM, day 1", "result": 1.161},
      {"measurement": "Relative proliferation rate", "setting": "[3]; 4 µM, day 1", "result": "1.103 and 1.191 (2×)"},
      {"measurement": "optical density", "setting": "[3]; 4 µM, day 1", "result": "0.302 and 0.326 (2×)"},
      {"measurement": "Relative proliferation rate mean", "setting": "[3]; 4 µM, day 2", "result": 1.646},
      {"measurement": "Relative proliferation rate", "setting": "[3]; 4 µM, day 2", "result": "1.545 and 1.706 and 1.687"},
      {"measurement": "optical density", "setting": "[3]; 4 µM, day 2", "result": "0.423 and 0.467 and 0.462"},
      {"measurement": "Relative proliferation rate mean", "setting": "[3]; 4 µM, day 3", "result": 1.9905},
      {"measurement": "Relative proliferation rate", "setting": "[3]; 4 µM, day 3", "result": "2.023 and 1.947 and 2.001"},
      {"measurement": "optical density", "setting": "[3]; 4 µM, day 3", "result": "0.554 and 0.533 and 0.548"},
      {"measurement": "Relative proliferation rate mean", "setting": "[3]; 4 µM, day 4", "result": 3.8824},
      {"measurement": "Relative proliferation rate", "setting": "[3]; 4 µM, day 4", "result": "3.992 and 3.985 and 3.671"},
      {"measurement": "optical density", "setting": "[3]; 4 µM, day 4", "result": "1.093 and 1.091 and 1.005"},
      {"measurement": "cell proliferation, 5-day course/colony (in words)", "setting": "[3]; PC-3 cells, dose-dependent", "result": "significantly inhibited the cell proliferation"},
      {"measurement": "Colony formation (cell number)", "setting": "[4]; 1 µM", "result": "40 cell number and 45 cell number and 35 cell number"},
      {"measurement": "Colony formation (cell number)", "setting": "[4]; 2 µM", "result": "10 cell number and 12 cell number and 9 cell number"},
      {"measurement": "Colony formation (cell number)", "setting": "[4]; 4 µM", "result": "5 cell number and 6 cell number"},
      {"measurement": "Apoptosis (%)", "setting": "[5]; 22Rv1, 0.5 μM", "result": "10.56% and 11.41% and 12.03%"},
      {"measurement": "Apoptosis (%)", "setting": "[5]; 22Rv1, 1 μM", "result": "18.52% and 20.96% and 19.24%"},
      {"measurement": "Apoptosis (%)", "setting": "[5]; 22Rv1, 2 μM", "result": "26.56% and 24.71% and 24.31%"},
      {"measurement": "apoptosis (in words)", "setting": "[5]; 22Rv1 cells, concentration-dependent", "result": "significant increase of the apoptotic cell population"}
    ]}
  ]
}
